Reference: patent US20130251678A1, “BID DOSAGE REGIMEN FOR DEB025” (NOVARTIS AG, priority 2010, published 2013)

How the values were obtained:
Assay type in all cases: in vivo, human
HCV Genotype 1 [1] = assay: Phase 2 study of genotype 1 treatment-naive patients: sustained virologic response (SVR); conditions: 600 mg BID for one week followed by 600 mg QD, 48 week treatment duration, combined with peg-IFNα2a
Source text: The virological response parameters are: rapid virologic response at treatment week 4 (RVR 4) defined by undetectable serum HCV-RNA at treatment week 4; early virological response (EVR), defined by at least 2 log10 IU/mL reduction in HCV-RNA compared to baseline (partial EVR) or undetectable serum HCV-RNA (complete EVR) at treatment week 12; sustained virological response (SVR24), defined as absence of HCV-RNA from serum by a sensitive Polymerase Chain Reaction (PCR) assay 24 weeks following end of therapy or the HCV RNA is undetectable (by LOD) 24 weeks after end of treatment; End of Treatment Response (ETR): HCV RNA undetectable (by LOD) at treatment end (completed or prematurely discontinued).

HCV Genotype 1 [2] = assay: Clinical study in HCV Genotype 1 non responder patients: decline in HCV RNA from baseline; conditions: with peg-IFNα2a plus RBV
Source text: HCV RNA levels can be measured using commercially available methods. As used herein, LOD means limit of detection and LOQ means limit of quantification of HCV RNA levels. For example, when using the COBAS® TaqMan® HCV Test, v2.0 (Roche Diagnostics) for assessment of HCV RNA levels, LOQ of 25 IU/ml (1.398 log10) and LOD of 10 IU/ml (1 log10) have been reported.
The efficacy of the therapy regimen may be monitored using standard protocols. Treatment may be followed by determinations of HCV in serum and measurement of serum ALT (alanine-aminotransferase) levels. For example, the patients may be assessed for the presence of HCV RNA in their plasma. HCV RNA (IU/mL) can be measured at regular intervals during the treatment, e.g., at Day 1 (pre-dose and 4, 8, and 12 hours post-dose) and pre-dose at Day 2, Day 3, Day 8, Day 15, Day 29, and at Week 12, Week 24, Week 36, Week 48, Week 72 (when applicable), and at follow up. In addition, the HCV strains in the patient can be sequenced and assessed for identification of mutations selecting for resistance.
In this hard to treat patient population, the 400 mg BID dose provided greater decline in HCV RNA from baseline (−1.41 log10 IU/ml) than the 800 mg QD dose (−0.70 log10 IU/ml). […]

[3] = Observed alisporivir Cmin in the HCV Genotype 1 non responder patient study; conditions: first week of treatment
Source text: As used herein, AUC refers to Area Under the Curve in [hr ng/mL] or area under the concentration vs time curve indicating the integrated quantity of analyte or drug (the serum concentration curve) after dosing; Cmax refers to the maximum concentration of the analyte or drug in [ng/mL] achieved after dosing; Cmin refers to the minimum concentration of the analyte or drug in [ng/mL] achieved after dosing

With C/C=C/C[C@@H](C)[C@@H](O)[C@H]1C(=O)N[C@@H](CC)C(=O)N(C)[C@H](C)C(=O)N(CC)[C@@H](C(C)C)C(=O)N[C@@H](C(C)C)C(=O)N(C)[C@@H](CC(C)C)C(=O)N[C@@H](C)C(=O)N[C@H](C)C(=O)N(C)[C@@H](CC(C)C)C(=O)N(C)[C@@H](CC(C)C)C(=O)N(C)[C@@H](C(C)C)C(=O)N1C [alisporivir, Alisporivir] the “rates of achievement of sustained virologic response (SVR) versus peg-IFNα2a” value (HCV Genotype 1 [1]) was “superior”, the “decline in HCV RNA from baseline” value (HCV Genotype 1 [2]; 400 mg BID during first week of treatment) was −1.41 log10 IU/ml and the “decline in HCV RNA from baseline” value (HCV Genotype 1 [2]; 800 mg QD during first week of treatment) was −0.70 log10 IU/ml. For the same molecule, the “median observed Cmin” value ([3]; 400 mg BID) was 175 ng/mL and the “median observed Cmin” value ([3]; 800 mg QD) was 148 ng/mL.
